# How the values were obtained:
# [1] = system: mice with ischemic AKI (bilateral renal IRI); experiment: Renal IRI (ischemic AKI) mouse model: renal function markers; type: in vivo, C57/BL6 mice
# Procedure: Briefly, mice were anesthetized with isoflurane using a vaporizer, and bilateral renal arteries were clamped for 30 min (2, 49). After the ischemic time, clamps were released to induce blood reperfusion. […] Serum and kidney tissue were collected 24 h after renal IRI. […] After reperfusion for 24 h, kidney tissues (˜20 mg) were homogenized in cold PBS containing indomethacin (10 μg/mL) and then centrifuged for 10 min at 12,000 rpm. Protein concentrations of supernatant were determined by BCA assay (ThermoFisher Scientific, Rockford, IL). The PGE2 level was measured using a PGE2 ELISA kit (R&D Systems, Minneapolis, MN) in triplicate. PGE2 levels were expressed as nanograms of PGE2 per milligram of protein. Renal function was assessed by determining the serum levels of blood urea nitrogen (BUN; Abcam), serum creatinine (Agilent 6410 LC-MS/MS, Agilent, Santa Clara, CA), lipocalin-2 (R&D Systems), and kidney injury molecule-1 (KIM-1; R&D Systems) after reperfusion for 24 h. Measurement of serum creatinine was by HPLC. Serum creatinine was assessed using an Agilent 6410 LC-MS/MS system coupled with an Agilent 1200 series HPLC system (Agilent). […] The mixture was centrifuged at 13,000 rpm for 10 min after vigorous vortex, and 1 μL of supernatant was then injected into the LC-MS/MS system. The chromatography separation was performed on a Hypersil GOLD C18 column (150×2.1 mm, 3 m, Thermo Scientific) using a mobile phase of 0.1% formic acid solution and acetonitrile [70:30 (vol/vol)]. The flow rate was 0.2 mL/min. Electrospray ionization was performed in the positive ion mode. The capillary voltage was set at 4,000 V. Nitrogen as the nebulizing gas was set at 15 psi, and the drying gas temperature was set at 300° C., with a flow rate of 6 L/min. The multiple-reaction monitoring mode using specific precursor/production transition was used for quantification. […] The peak areas for all analytes were integrated automatically using Agilent Mass Hunter Analysis software (version B.01.04).
# [2] = system: mice with ischemic AKI (bilateral renal IRI); experiment: Renal IRI model: necrotic and apoptotic cell death, gross pathology; type: in vivo, C57/BL6 mice; settings: 24 h after renal IRI; 5 mg/kg ip three times
# Source text: To evaluate necrosis, 5-μm-thick paraffin sections were stained with hematoxylin and eosin. Tubular injury of individual slides was scored semi-quantitatively according to a scoring system by a pathologist in a blinded manner. The scoring system was as follows: 0, no damage; 1, patchy isolated unicellular necrosis; 2, tubular necrosis <25%; 3, tubular necrosis 25-50%; and 4, tubular necrosis >50%. To analyze the frequency of apo ptosis, 5-μm-thick paraffin sections were subjected to a TUNEL assay (Millipore, Temecula, CA) according to the manufacturer's protocol. TUNEL-positive cells were counted in at least five separate fields (64 magnification) in the outer medulla, and the apoptosis index (in %, number of apoptosis cells/total number of cells) was calculated using GENASIS software.
# [3] = system: mice with ischemic AKI (bilateral renal IRI); experiment: Renal IRI model: proinflammatory cytokines and HMGB1; type: in vivo, C57/BL6 mice; settings: 24 h after renal IRI, vs IRI-vehicle mice
# Procedure: Inflammatory cytokine mRNA and protein levels were measured by real-time PCR and ELISA. Kidney tissue and serum were harvested after reperfusion for 24 h. Total RNA was extracted from frozen kidney tissue using TRIzol reagent (ThermoFisher Scientific) according to the manufacturer's protocol. RNA was converted to cDNA using oligo-dT primers. IL-17, TNF-α, and IL-1b mRNA levels were determined by real-time PCR. Serum IL-17 (R&D Systems), TNF-α (R&D Systems), and IL-10 (R&D Systems) were measured using commercial ELISA kits according to the manufacturer's instructions.
# [4] = system: mice with ischemic AKI (bilateral renal IRI); experiment: Renal IRI model: renal vasodilation and renal Doppler flux (RBF); type: in vivo, C57/BL6 mice; settings: 24 h following IRI
# Procedure: The inner arteriolar area of the outer medulla was determined using α-smooth muscle actin (α-SMA)-stained sections. Kidneys were removed without perfusion under inhalational isoflurane anesthesia, divided into three pieces horizontally, immediately fixed in 10% formalin, and then embedded in paraffin. The inner area of α-SMA-positive vessels in the outer medulla was measured using ImageJ. The results are expressed as average areas of renal arteries in the outer medulla. As a surrogate for RBF, we used noninvasive laser Doppler flowmetry (periflux system 5000, Perimed) to measure flux, placing laser-Doppler probes at a fixed position on the kidney surface and recording renal cortical measurements. […] The relative increase represents the percent increase in RDF from baseline to peak for each test.
# [5] = system: mice with ischemic AKI (bilateral renal IRI); experiment: Renal IRI model: cAMP, AMP and adenosine levels; type: in vivo, C57/BL6 mice; settings: 24 h post-IRI, vs sham mice
# Procedure: After reperfusion for 24 h, kidney tissues were harvested, homogenized in 10 volumes of 0.1 M HCl, and centrifuged for 10 min at 12,000 rpm. cAMP levels in kidney tissues and serum were measured using a cAMP Complete ELISA kit (Enzo Life Science, Farmingdale, NY). AMP and adenosine in kidney tissue were assessed by Agilent 6410 LC-MS/MS. Serum adenosine was measured using an assay kit (Abnova, Walnut, CA).
# [6] = system: mice with ischemic AKI (bilateral renal IRI); experiment: Renal IRI model: PGE2 (EP1-EP4) and adenosine A2A receptor expression; type: in vivo, C57/BL6 mice; settings: 24 h post-IRI
# Procedure: PGE2 receptors (EP1, EP2, EP3, and EP4) and adenosineA2A receptor mRNA levels were deter-mined by real-time PCR. Their protein levels were determined by Western blot assay and immunofluorescence analysis.
# [7] = system: contrast-induced acute kidney injury (CIAKI) mice; experiment: CIAKI mouse model: renal function (serum creatinine, NGAL, KIM-1); type: in vivo, C57/BL6 mice
# Procedure: Female mice were injected with 10 gI/kg of Visipaque (iodixanol) via the tail vein. […] For inhibition of the EP4s, mice were treated with 0.2 mg/kg/day of ONO-AE3-208 by subcutaneous injection for 14 days. Serum and kidney tissue were collected 48 h after the iodixanol injection.
# Renal function was assessed by determining the serum levels of creatinine (Arbor Assays, Ann Arbor, MI, USA), NGAL (R&D Systems), and KIM-1 (R&D Systems) at 48 h after the iodixanol injection.
# [8] = system: contrast-induced acute kidney injury (CIAKI) mice; experiment: CIAKI mouse model: necrotic and apoptotic cell death, gross findings; type: in vivo, C57/BL6 mice; settings: 48 h after CM
# Procedure: Kidneys were harvested at 48 h after the CM injection, fixed in 4% phosphate-buffered formalin, and embedded in paraffin. To evaluate necrosis, […] paraffin sections were stained with hematoxylin and eosin. Tubular injury was scored semi-quantitatively according to a system by a pathologist who examined at least 20 separate fields (400× magnification) in the outer medulla, which is the zone most sensitive to ischemic injury. The scoring system was as follows: 0, no damage; 1, patchy isolated unicellular necrosis; 2, tubular necrosis <25%; 3, tubular necrosis 25-50%; and 4, tubular necrosis >50%. At least 20 consecutive high-power fields per section were scored by two operators blind to the details of the experiment. To analyze the frequency of apoptosis, […] paraffin sections were subjected to terminal deoxynucleotidyl transferase-mediated dUTP nick-end labeling (TUNEL) assay (Millipore, Temecula, CA, USA) according to the manufacturer's protocol. Four […] paraffin sections were incubated with the TUNEL reaction mixture at 37° C. for 1 h, followed by incubation with a horseradish peroxidase-conjugated detection antibody. The signals were visualized using diaminobenzidine (Sigma-Aldrich). After counterstaining with Mayer's hematoxylin, TUNEL-positive cells were counted in at least five separate fields (640× magnification) in the outer medulla, and the apoptosis index (%, number of apoptosis cells/total number of cells) was calculated using GENASIS software.
# [9] = system: human renal proximal tubular epithelial cells (hRPTECs); experiment: hRPTEC cell viability (MTT assay) with iodixanol; type: cell-based; settings: iodixanol 50 mgI/mL, 24 h; PGE1 100 ng/mL, PGE2 100 nM vs CM vehicle; CM vs normal control
# Procedure: 3-(4,5-Dimethyl thiazol-2-yl)-2,5-diphenyl tetrazolium bromide (MTT) assay was used to assess cell viability. The hRPTECs were cultivated in 96-well plates at a density of 10^5 cells/mL and then incubated for 24 h. […] Then, 10 µM MTT (Sigma-Aldrich) was added to each well for an additional 4 h. The blue MTT formazan precipitate was dissolved in 100 mL dimethyl sulfoxide. The absorbance at 540 nm was measured with a multi-well plate reader. Cell viability was expressed as a percentage of the no-treatment cells, as the mean value±standard deviation of the six independent experiments.
# [10] = system: human renal proximal tubular epithelial cells (hRPTECs); experiment: hRPTEC apoptosis by flow cytometry with iodixanol; type: cell-based
# Procedure: Human renal proximal tubular epithelial cells (hRPTECs) were purchased from the American Type Culture Collection (#PCS-400-010TM, Manassas, VA, USA). These cells were grown in 75 cm^2 flasks in Renal Epithelial Cell Basal Medium (PCS-400-030TM, ATCCVR) supplemented with Renal Epithelial Cell Growth Kit (PCS-400-040TM, ATCCVR).
# After the treatment described in the section above, the hRPTECs were pelleted by centrifugation at 1800 rpm for 10 min and incubated with annexin V fluorescein isothiocyanate and propidium iodide using an Apoptosis Detection Kit I (#556547, BD Biosciences, San Jose, CA, USA) according to the manufacture's instruction. Then quantification was conducted using a FACSC flow cytometer with Cell Quest software (BD Biosciences).
# [11] = system: contrast-induced acute kidney injury (CIAKI) mice; experiment: CIAKI mouse model: renal blood flow (laser Doppler flux); type: in vivo, C57/BL6 mice
# Procedure: Total RBF was assessed by measuring renal Doppler flux using noninvasive laser Doppler flowmetry (PeriFlux System 5000, Perimed AB, Sweden). Laser Doppler probes were placed on the kidney surface to measure the renal flux. The flux was measured 48 h after CM administration. The relative increase represented the percentage increase in renal blood flow from baseline to peak for each test. Statistical significance was set as p<0.05.
# mice = experiment: Induction of CIAKI by intravenous contrast media in mice; type: in vivo, C57/BL6 mice; settings: 10 gI/kg iv; for Cr vs normal control / KIM-1 vs normal control / NGAL vs normal control: 48 h after administration
# Procedure: The two different […] in terms of viscosity and osmolality were administered intravenously to 5 mice for each group. Ten grams of iodine per body weight (gI/kg) of each CM was injected by a 26-gauge syringe through the tail vein. The blood samples for the analysis of functional assessment of kidney injury such as Cr, NGAL, and KIM-1 were taken at 48 h after administration (FIGS. 10(A, B)).
# [12] = iodixanol 10 gI/kg + vehicle, 48 h after CM
smiles,measurement,setting,value
"COc1ccc2c(c1)c(CC(=O)O)c(C)n2C(=O)c1ccc(Cl)cc1 [indomethacin, reference compound]",BUN (serum),"[1]; 24 h after renal IRI, vs IRI-vehicle mice, dosing before and after IRI",increase
same,tissue congestion in the outer medulla (gross pathology),[2],worsened
same,HMGB1 levels in kidney tissue,[3],increased
same,RDF-inferred RBF,[4],reduced
same,renal cAMP,[5],reduced
same,EP1 receptor mRNA levels,[6],increased
same,EP4 receptor mRNA levels,[6],reduced
same,levels of EP2 receptors,[6],no effect
same,levels of EP3 receptors,[6],no effect
"CCCCC[C@H](O)/C=C/[C@H]1[C@H](O)CC(=O)[C@@H]1CCCCCCC(=O)O [PGE1, prostaglandin E1]","serum creatinine, effect in words","[7]; CIAKI mice, 48 h after CM",decreased
same,"TUNEL-positive cell proportions vs CIAKI mice, in words",[8],significantly lower
same,"renal injury score, effect in words",[8],No reduction
same,vascular congestion in the outer medullary region (gross findings),[8],prominent vascular congestion
same,"cell viability (MTT), in words",[9],did not show any difference
same,"apoptotic rate vs CM vehicle group, in words",[10]; PGE1 100 ng/mL with iodixanol 50 mgI/mL,no differences
same,"preservation of RBF from CM-induced reduction, in words",[11]; 48 h after CM,did not
CN(CC(O)CO)C(=O)c1c(I)c(NC(=O)C(CO)CO)c(I)c(C(=O)N(C)CC(O)CO)c1I (stereo not drawn) [Xenetix],Cr vs normal control,mice,significant increase
same,KIM-1 vs normal control,mice,did not show significant differences
same,NGAL vs normal control,mice,did not show significant differences
CC(C(=O)Nc1cc(C#N)ccc1CCCC(=O)O)c1ccc(F)c2ccccc12 (stereo not drawn) [ONO-AE3-208],"beneficial effects of SW033291 on BUN, serum creatinine, serum Kim-1 and RDF-inferred RBF",[1]; ONO-AE3-208 10 mg/kg co-administered with the three-dose schedule of SW033291 in IRI mice,substantially blocked
same,"serum creatinine, absence or presence of ONO-AE3-208","[7]; CIAKI mice (FIG. 15E), SW033291 line = CM + SW033291, ONO-AE3-208 line = CM + ONO-AE3-208 + SW033291",1.51 ± 0.31 mg/dL
same,"serum NGAL, absence or presence of ONO-AE3-208","[7]; CIAKI mice (FIG. 15F), SW033291 line = CM + SW033291, ONO-AE3-208 line = CM + ONO-AE3-208 + SW033291",229.85 ± 27.12 ng/mL
same,"serum KIM-1, absence or presence of ONO-AE3-208","[7]; CIAKI mice (FIG. 15G), SW033291 line = CM + SW033291, ONO-AE3-208 line = CM + ONO-AE3-208 + SW033291",0.85 ± 0.26 ng/mL
same,increase in RBF by SW033291 treatment,[11]; ONO-AE3-208 with SW033291 (FIG. 15H),blocked the increase
"CC(=O)N(CC(O)CN(C(C)=O)c1c(I)c(C(=O)NCC(O)CO)c(I)c(C(=O)NCC(O)CO)c1I)c1c(I)c(C(=O)NCC(O)CO)c(I)c(C(=O)NCC(O)CO)c1I (stereo not drawn) [Visipaque, iodixanol]",necrosis and apoptosis (Renal injury score and TUNEL assay) vs normal control,mice; 48 h,significantly higher
same,Cr vs normal control,mice,elevation
same,KIM-1 vs normal control,mice,elevation
same,NGAL vs normal control,mice,elevation
same,serum KIM-1 in CM-treated mice,[7]; [12],1.41 ± 0.41 ng/mL
same,serum NGAL in CM-treated mice,[7]; [12],299.71 ± 38.64 ng/mL
same,serum creatinine in CM-treated mice,[7]; [12],1.94 ± 0.24 mg/dL
same,"cell viability (MTT), in words",[9],significantly lower
same,increase of apoptosis rate of hRPTECs in the CM group compared to the normal group,"[10]; iodixanol 50 mgI/mL, 24 h",more than 2.5 times
